Laboratory results as given in patent publication US20230285570A1, “THERAPEUTICALLY USEFUL CURE-PRO MOLECULES FOR E3 LIGASE MEDIATED DEGRADATION OF PROTEINS, AND METHODS OF MAKING AND USING THEM” (CORNELL UNIVERSITY, priority 2020, published 2023).
Entries after “also recorded” stand apart in the source; their conditions may differ.

Columns and labels:
[1] = tested on: MV-4-11 cells; test: CellTiter-Glo cell viability, MV-4-11 cells; type: cell-based; conditions: co-dosed 1:1 with CRBN ligand 8049, MV-4-11, 24 h, 1 nM-100 μM each
Outline: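 Viability by CellTiter-Glo luminescence. One protocol: 5×10^4 MV-4-11 cells, 24 h, compounds at 1 nM-100 μM each; other: 1×10^4 cells, 72 h, 10 nM-100 μM each. BRD ligands combined 1:1 with CRBN ligands; dose-response curves fitted.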

[2] = target: T1, BRD4 (Homo sapiens, UniProt O60885); test: Summary of BRD4 degradation by CURE-PRO pairs, estimated from Western Blot or WES; type: cell-based; parameters: endogenous in cells
Outline: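 Degradation read-out from immunoblot with ECL, or WES capillary electrophoresis with HRP detection, of RIPA lysates. Cells (Namalwa, Ramos, HeLa, MCF7, HT29 or HCT116) were exposed to DMSO-solubilized compounds for 24 h; a check mark marks 30% to 70% or higher degradation.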

[3] = target: T2, BRD3 (Homo sapiens, UniProt Q15059); test: BRD protein family degradation in HCT116 cells, Western blot: BRD3; type: cell-based; conditions: 1:1 with MDM2 ligands 8310 and 8312 (each), HCT116, 24 h, 100 nM-10 μM
T2 construct: endogenous in cells; host or cells: HCT116
T2 sequence (Q15059 whole entry): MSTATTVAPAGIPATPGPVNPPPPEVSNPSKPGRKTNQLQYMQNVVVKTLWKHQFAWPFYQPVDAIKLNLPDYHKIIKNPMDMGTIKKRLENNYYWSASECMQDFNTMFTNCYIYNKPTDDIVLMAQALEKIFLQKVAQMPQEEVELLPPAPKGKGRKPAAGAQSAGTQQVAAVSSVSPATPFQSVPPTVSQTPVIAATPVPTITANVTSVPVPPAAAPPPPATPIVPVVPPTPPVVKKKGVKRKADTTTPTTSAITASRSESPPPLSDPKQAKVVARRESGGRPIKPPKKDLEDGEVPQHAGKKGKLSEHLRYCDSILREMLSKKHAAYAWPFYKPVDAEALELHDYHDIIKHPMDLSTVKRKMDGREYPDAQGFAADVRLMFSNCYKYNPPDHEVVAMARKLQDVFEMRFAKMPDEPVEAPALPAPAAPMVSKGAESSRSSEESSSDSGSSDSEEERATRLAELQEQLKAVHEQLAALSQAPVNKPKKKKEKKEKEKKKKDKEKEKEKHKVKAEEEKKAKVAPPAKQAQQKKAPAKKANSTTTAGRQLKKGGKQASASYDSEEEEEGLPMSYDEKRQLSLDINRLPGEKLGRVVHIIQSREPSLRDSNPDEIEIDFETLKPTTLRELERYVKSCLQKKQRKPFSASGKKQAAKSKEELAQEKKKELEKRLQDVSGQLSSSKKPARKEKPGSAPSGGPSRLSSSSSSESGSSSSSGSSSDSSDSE
Description: (§1) Namalwa, Ramosm HeLa, MCF7, or HT29 HCT116 cells (2.5-3×10^6) were treated for 24 hours with the indicated compounds solubilized in DMSO. The cells were washed in ice-cold PBS and were then lysed in RIPA lysis buffer (150 mM NaCl, 5 mM EDTA, 1% NP-40, 0.5% sodium deoxycholate, 0.1% SDS, 50 mM Tris, pH 8.0.) with Roche protease inhibitor complete cocktail and phosphatase inhibitors (10 mM sodium fluoride, 10 mM sodium pyrophosphate, 1 mM sodium orthovanadate and 20 mM β-glycerophosphate). The total protein concentrations were determined by Bradford Protein Assay (Pierce) and 10-20 μg of protein was loaded onto 4-15% Tris-Glycine gradient gels (Biorad). After standard gel electrophoresis, the separated proteins were transferred to PVDF membrane by wet transfer. The immunoblots were then blocked for 1 hour in 5% skim milk in TBST or 5% BSA in TBST, according to manufacturer's instructions, before an overnight incubation at 4° C. with indicated antibodies and membranes. […] Signal was detected with ECL Western Blotting Substrate (Pierce) and X-ray film processed with a Konica SRX-101 X-ray film processor or captured by Bio-Rad's Chemidoc Imaging system. […]

[4] = target: T1, BRD4; test: CURE-PRO-mediated BRD4 degradation in HCT116 cells, WES (ProteinSimple); type: cell-based; parameters: endogenous in cells; conditions: for BRD4 degradation: 10 μM
Description: All cell lines were purchased from ATCC or DSMZ and grown at 37° C. with 5% CO2. Human HeLa cells were cultured in complete growth medium (Dulbecco's modified Eagle's medium (DMEM) supplemented with 10% FBS); MCF7 cells were cultured in complete growth medium (Dulbecco's modified Eagle's medium (DMEM) supplemented with 10% FBS and 0.01 mg/ml human recombinant insulin (Sigma Aldrich); Namalwa and Ramos cells were cultured in complete growth medium (RPMI 1640 medium supplemented with 10% FBS); HCT116 and HT29 cells were cultured in complete growth medium (McCoy's 5a Medium supplemented with 10% FBS). For cellular degradation of BRD4 studies cells were seeded in a 12-well plate at 70-80% confluency, allowed to attach overnight, and incubated with the indicated compounds for the indicated time. When indicated, a 15-minute pretreatment with 10 μM pomalidomide, 10 μM VHL298, 10 μM Nutlin3a, 1 μM MG-132 or 1 μM Carfilzomib was performed before the addition of CURE-PROs. For washout studies, after CURE-PRO treatment, media was aspirated and incubated with complete medium for the indicated time before lysis.
WES Simple analysis was performed on WES system (ProteinSimple-Biotechne) according to the manufacturer's instructions. Total protein concentrations of cell lysates were determined by the Pierce BCA kit (Thermo Fisher). 3 μL of 0.3 μg/μL of the protein lysate was loaded onto a 12- to 230-kDa WES assay plate (ProteinSimple) where 300 nL sample was withdrawn through a capillary, subjected to electrophoretic separation of proteins by size, and followed by the simultaneous, HRP-based detection of proteins using the Anti-Rabbit Detection Module (Proteinsimple: #DM-001). The electropherograms were checked then the automatic peak detection was manually corrected if it was required.
(§2) HCT116 cells (3×10^6) were treated for 24 hours with the compounds solubilized in DMSO. Compounds were added at 1 μM-10 μM each. Standardized protein samples were electrophoresed and imaged as described in the WES ProteinSimple section above. FIGS. 59, 60, and 61 depict the concentration-dependence of CURE-PRO-mediated BRD4 degradation using MDM2 ligands.
as §2, with “62” for “59, 60,”, “63” for “61”
HCT116 cells (3×10^6) were treated for 24 hours with the compounds solubilized in DMSO. CURE-PRO monomers were added at 10 μM each and the proteasomal inhibitors at 1 μM. Standardized protein samples were electrophoresed and imaged as described in the WES ProteinSimple section above. FIG. 68 depicts the dependence of the proteasome for CURE-PRO-mediated BRD4 degradation.

[5] = tested on: SLC19A1; test: RT-PCR of c-MYC downstream target gene SLC19A1 in HeLa cells; type: cell-based, Human; conditions: combined with MDM2 ligand 8312, HeLa, 10 μM each, 24 h
Description: The suppression of the expression of the downstream c-MYC target, SLC19A1, was measured by RT-PCR using Power SYBR® Green Cells-to-Ct™ Kit (Life Technologies). Adherent cells were plated on 96 well plates at 5,000 cells per well were treated for 24 h with monomer compounds and compounds capable of reversible interactions (1 nM-100 μM). Cells were subsequently washed in ice-cold PBS processed according to the manufacturer's instructions. Quantitative real-time PCR was performed using a ViiA™ 7 Real-time PCR System (Applied Biosystems, Foster City, Calif., USA). GAPDH and ACTB served as internal controls.
HeLa cells (1×10^4) were treated for 24 hours in 96 well plates with the compounds solubilized in DMSO. Compounds were added at 10 μM each and RNA expression measured by the Cells-to Ct method described above (Thermofisher).

[6] = target: T1, BRD4; test: BRD protein family degradation in HCT116 cells, Western blot: BRD4; type: cell-based; parameters: endogenous in cells
Description: Namalwa, Ramosm HeLa, MCF7, or HT29 HCT116 cells (2.5-3×10^6) were treated for 24 hours with the indicated compounds solubilized in DMSO. The cells were washed in ice-cold PBS and were then lysed in RIPA lysis buffer (150 mM NaCl, 5 mM EDTA, 1% NP-40, 0.5% sodium deoxycholate, 0.1% SDS, 50 mM Tris, pH 8.0.) with Roche protease inhibitor complete cocktail and phosphatase inhibitors (10 mM sodium fluoride, 10 mM sodium pyrophosphate, 1 mM sodium orthovanadate and 20 mM β-glycerophosphate). The total protein concentrations were determined by Bradford Protein Assay (Pierce) and 10-20 μg of protein was loaded onto 4-15% Tris-Glycine gradient gels (Biorad). After standard gel electrophoresis, the separated proteins were transferred to PVDF membrane by wet transfer. The immunoblots were then blocked for 1 hour in 5% skim milk in TBST or 5% BSA in TBST, according to manufacturer's instructions, before an overnight incubation at 4° C. with indicated antibodies and membranes. Membranes were then incubated with the appropriate horseradish peroxidase-conjugated secondary antibodies (1:5,000 dilution) for 1 h at room temperature and the bands were visualized using the Clarity Max Western ECL Substrate (Biorad) and the ChemiDoc Imaging System (Biorad). Signal was detected with ECL Western Blotting Substrate (Pierce) and X-ray film processed with a Konica SRX-101 X-ray film processor or captured by Bio-Rad's Chemidoc Imaging system.
as §2, with “100 nM-10” for “1 μM-10”, “Immunoblotting” for “WES ProteinSimple”, “64” for “59, 60,”, “65” for “61”, “BRD2 and BRD3” for “BRD4”

[7] = target: T3, BRD2 (Homo sapiens, UniProt P25440); test: BRD protein family degradation in HCT116 cells, Western blot: BRD2; type: cell-based; conditions: 1:1 with MDM2 ligands 8310 and 8312 (each), HCT116, 24 h, 100 nM-10 μM
T3 construct: endogenous in cells; host or cells: HCT116
T3 sequence (P25440 whole entry): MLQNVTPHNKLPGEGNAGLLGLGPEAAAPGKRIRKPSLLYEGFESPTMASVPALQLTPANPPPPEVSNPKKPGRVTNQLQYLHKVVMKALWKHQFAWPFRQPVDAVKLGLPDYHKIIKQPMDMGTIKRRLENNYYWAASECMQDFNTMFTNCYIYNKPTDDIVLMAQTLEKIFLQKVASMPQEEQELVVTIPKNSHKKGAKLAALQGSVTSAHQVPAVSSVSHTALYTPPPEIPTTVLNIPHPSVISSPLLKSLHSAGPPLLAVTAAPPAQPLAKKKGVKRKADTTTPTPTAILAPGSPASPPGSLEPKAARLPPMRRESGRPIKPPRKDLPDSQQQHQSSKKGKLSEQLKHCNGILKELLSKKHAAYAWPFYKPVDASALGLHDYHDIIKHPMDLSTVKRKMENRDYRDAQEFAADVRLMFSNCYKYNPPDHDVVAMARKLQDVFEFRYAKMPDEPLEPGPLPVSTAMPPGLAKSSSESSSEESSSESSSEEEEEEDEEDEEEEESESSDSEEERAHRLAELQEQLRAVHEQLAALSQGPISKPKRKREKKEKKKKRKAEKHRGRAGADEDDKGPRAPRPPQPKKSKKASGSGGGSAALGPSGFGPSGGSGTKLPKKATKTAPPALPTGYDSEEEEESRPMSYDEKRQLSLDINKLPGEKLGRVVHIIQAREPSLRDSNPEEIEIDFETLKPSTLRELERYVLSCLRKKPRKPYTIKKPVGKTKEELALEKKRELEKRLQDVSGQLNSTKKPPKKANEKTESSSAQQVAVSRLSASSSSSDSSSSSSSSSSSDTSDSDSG
Description: as §1

CCNC(=O)C[C@@H]1N=C(c2ccc(Cl)cc2)c2cc(OCCNC(=O)c3cccc(O)c3O)ccc2-n2c(C)nnc21 [BRD-N25]
loss of cellular viability (toxicity) [1]: concentration-dependent loss in cellular viability; also recorded: increased toxicity
Degradation of BRD4, combination with MDM2 ligand 8310 ([2]; Table 5, aromatic 1,2-diol BRD4 ligand + 8310): √ (A black check mark indicates efficacy of 30% to 70% or higher protein degradation)
Degradation of BRD4, combination with MDM2 ligand 8312 ([2]; Table 5, aromatic 1,2-diol BRD4 ligand + 8312): √ (A black check mark indicates efficacy of 30% to 70% or higher protein degradation)
BRD3 degradation [3]: degradation of BRD3; also recorded: Degradation is evident
BRD4 degradation with proteasome inhibitors ([4]; 1:1 with 8310 at 10 μM, pre-incubation with MG-132 and Carfilzomib 1 μM, HCT116): inhibited by the pre-incubation with MG-132 and Carfilzomib; also recorded: inhibited with the proteasome inhibitors, MG-132 and Carfilzomib
BRD4 degradation ([4]; 1:1 with MDM2 ligand 8310, HCT116, 24 h): caused BRD4 degradation; also recorded: marked BRD4 degradation
BRD4 degradation ([4]; 1:1 with MDM2 ligand 8312, HCT116, 24 h): caused BRD4 degradation
suppression of SLC19A1 expression [5]: suppressed more substantially
BRD4 degradation ([6]; 1:1 with MDM2 ligands 8310 and 8312 (each), HCT116, 24 h, 100 nM-10 μM): caused BRD4 degradation; also recorded: Degradation is evident
selectivity of degradation among BRD2, BRD3 and BRD4 ([6]; with MDM2 ligands 8310 and 8312, HCT116, Western blot): some selectivity for BRD3 and BRD4 over BRD2 for 8310 is noted
BRD2 degradation [7]: BRD2 to a lesser extent; also recorded: Degradation is evident
